Results as given in PMC11472313, “Development of Fragment-Based Inhibitors of the Bacterial Deacetylase LpxC with Low Nanomolar Activity” (Journal of Medicinal Chemistry, 2024).
Converted amounts (≈) assume the structure as drawn.

Key:
[1] = target: T1, E. coli LpxC C63A (Escherichia coli, UniProt P0A725, C63A); experiment: fluorescence-based E. coli LpxC C63A enzyme inhibition assay; assay type: biochemical; settings: Ki E. coli LpxC C63A, from IC50 via Cheng–Prusoff
T1 construct: made in house; host or cells: E. coli BL21(DE3)
Method: In order to determine the inhibitory activities of the compounds of interest toward E. coli LpxC, a fluorescence-based enzyme assay was deployed, in which the formed deacetylated natural product UDP-3-O-[(R)-3-hydroxymyristoyl]glucosamine (2) is transformed into a fluorescent isoindole with o-phthaldialdehyde and 2-mercaptoethanol.[48],[49] […] The KM of E. coli LpxC C63A was determined experimentally using a mass spectrometry-based LpxC assay (Figure S8, Supporting Information, vide infra).
A fluorescence-based microplate assay for LpxC activity was performed as described by Clements et al.[48] The wells in a black, nonbinding, 96-well fluorescence microplate (Greiner Bio One, Frickenhausen) were filled with 93 μL of 26.9 μM UDP-3-O-[(R)-3-hydroxymyristoyl]-N-acetylglucosamine in assay buffer [40 mM sodium morpholinoethanesulfonic acid (pH 6.0), 80 μM dithiothreitol, 0.02% Brij 35]. In order to assay the inhibitors at final concentrations from 20 nM up to 20 μM, 2 μL of a respective dilution of the compounds in DMSO were added. The addition of 5 μL of a solution of purified LpxC (10 μg mL^–1) in assay buffer led to final concentrations of 25 μM UDP-3-O-[(R)-3-hydroxymyristoyl]-N-acetylglucosamine, 15 nM E. coli LpxC C63A, 2% DMSO, and from 20 nM up to 20 μM inhibitor. The microplate was incubated for 30 min at 37 °C in a plate shaker. Then, the biochemical reaction was stopped by adding 40 μL of 0.625 M sodium hydroxide. The reaction mixture was further incubated for 10 min and neutralized by adding 40 μL of 0.625 M acetic acid. The deacetylated product UDP-3-O-[(R)-3-hydroxymyristoyl]glucosamine was converted into a fluorescing isoindole by adding 120 μL of an o-phthaldialdehyde-2-mercaptoethanol solution, which was prepared by dissolving 10 mg of o-phthaldialdehyde in 1 mL of methanol, diluting the mixture with 24 mL of a sodium borate buffer (0.1 M), and finally adding 2.5 μL of 2-mercaptoethanol.[49] Fluorescence was measured with a TriStar^2 S LB 942 plate reader (Berthold, Bad Wildbad) at 340 nm excitation and 460 nm emission wavelengths. Each assay was performed at least three times on separate days. The IC50 values were calculated via Probit-log concentration graphs with the aid of the software Origin and were subsequently converted into Ki values using the Cheng–Prusoff equation.[75],[76]

[2] = tested on: E. coli BL21(DE3); experiment: MIC, broth microdilution; assay type: cell-based; settings: Escherichia coli, 20 h, 37 °C, LB
Method: (§1) Besides measuring the inhibitory activities toward E. coli LpxC C63A, the antibacterial activities of the synthesized hydroxamic acids were evaluated by determining their minimal inhibitory concentrations (MIC) in broth dilution tests as well as by performing disc diffusion assays (Table 1).
(§2) The MIC values of the compounds were determined by means of the microdilution method using 96-well plates.
(§3) The overnight suspension was diluted 1:1000 in fresh LB. 10 μL of a 2-fold dilution series of the compounds in DMSO and 90 μL of LB were dispensed to each well of a 96-well plate. Then, 100 μL of the inoculated medium was added, resulting in 5 × 10^5 cfu mL^–1, 5% DMSO, and a final concentration range of the test compounds between 64 and 0.016 μg mL^–1. The plates were incubated for 20 h at 37 °C. The MIC was defined as the lowest concentration of the compounds that prevented visible growth after incubation. Each assay was performed at least three times on separate days.

[3] = tested on: E. coli D22; experiment: MIC, broth microdilution; assay type: cell-based; settings: Escherichia coli, 20 h, 37 °C, LB
Method: as §1, §2, §3

[4] = tested on: E. coli BL21(DE3); experiment: disc diffusion assay; assay type: cell-based; settings: 0.15 μmol per 6 mm disc
Method: as §1
(§4) The disc diffusion assays against E. coli BL21(DE3) and the defective strain E. coli D22 were performed as follows: liquid cultures of the bacteria were grown overnight in lysogeny broth (LB)[73] at 37 °C and 200 rpm. 150 μL of an overnight cell suspension was spread evenly onto LB agar plates. 0.15 μmol of each compound (dissolved in 10 or 15 μL DMSO) were applied onto circular filter paper (Ø = 6 mm, Cytiva). Pure DMSO, serving as a negative control, and CHIR-090, serving as a positive control, were also spotted. The agar plates were incubated overnight at 37 °C, and the diameter of the zone of growth inhibition was measured for each compound. Each assay was performed at least three times on separate days.

[5] = tested on: E. coli D22; experiment: disc diffusion assay; assay type: cell-based; settings: 0.15 μmol per 6 mm disc
Method: as §1, §4

[6] = target: T2, LasB (Pseudomonas aeruginosa, UniProt Q02RJ6); experiment: FRET-based LasB in vitro inhibition assay; assay type: biochemical, P. aeruginosa PA14
T2 construct: The elastase LasB of P. aeruginosa is a secreted metalloprotease; endogenous in cells; host or cells: P. aeruginosa PA14 culture supernatant
Method: Purification of LasB from P. aeruginosa PA14 supernatant and the subsequent performance of the FRET-based in vitro inhibition assay was performed as described previously.[66] The TACE (ADAM-17) inhibitor screening kit was purchased from Sigma-Aldrich (Saint Louis, MO). MMPs 1–3 along with the SensoLyte 520 Generic MMP Activity Kit Fluorimetric were purchased from AnaSpec (Fremont, CA, USA). The assays were performed according to the guidelines of the respective manufacturer. Fluorescence signals were measured using a CLARIOstar plate reader (BMG Labtech, Ortenberg, Germany).

[7] = tested on: LpxC–9 complex; experiment: NMR-ILOE (interligand NOESY) of fragment hits with LpxC and 9; settings: fragment hits binding the LpxC–9 complex by STD and WaterLogsy; 6 μM LpxC
Method: In order to find fragments specifically addressing the UDP-binding pocket, which can be linked to the LpxC inhibitors, a fragment screen was performed against LpxC bound to 9. First, 650 fragments in cocktails of five were tested for binding to the LpxC–9 complex using STD-NMR and WaterLogsy experiments. Then, fragment hits identified as potential binders were tested one by one against the LpxC–9 complex by STD-NMR and WaterLogsy experiments performed under identical experimental conditions. A total of 97 fragment hits were identified as binders, leading to a hit rate of 15%.
Then, NMR-ILOE experiments were performed with selected fragment hits in the presence of LpxC and the unsubstituted hydroxamic acid 9. This allowed the identification of fragments that bind in the enzyme’s UDP-binding pocket near the methylene group in the α-position of the inhibitor’s hydroxamate moiety. Weak interligand NOESY peaks were observed between inhibitor 9 and nine fragments. By contrast, no interligand NOESY peaks were observed between compound 9 and the other ten fragments. […] Unexpectedly, we also observed interligand NOESY between the fragment protons and protons of the morpholino moiety.
Standard 1D and STD NMR spectra were acquired at 20 °C with a Bruker 600 MHz NMR spectrometer equipped with a 5 mm cryoprobe. Parameters for the STD experiments (saturation frequency and saturation time) were identical for all samples. […] STD saturation time was 2 s. WaterLOGSY mixing time was 1.5 s. Two NOESY experiments were recorded with mixing times of 0.6 and 0.3 s. STD and WaterLOGSY spectra were recorded with the same NMR tubes containing 3 μM LpxC, compound 9 at 500 μM, and fragments at 500 μM. For NOESY experiments, NMR tubes contained 6 μM LpxC.
Temperature was set to 293 K for all NMR experiments.

T1 sequence (P0A725 whole entry C63A): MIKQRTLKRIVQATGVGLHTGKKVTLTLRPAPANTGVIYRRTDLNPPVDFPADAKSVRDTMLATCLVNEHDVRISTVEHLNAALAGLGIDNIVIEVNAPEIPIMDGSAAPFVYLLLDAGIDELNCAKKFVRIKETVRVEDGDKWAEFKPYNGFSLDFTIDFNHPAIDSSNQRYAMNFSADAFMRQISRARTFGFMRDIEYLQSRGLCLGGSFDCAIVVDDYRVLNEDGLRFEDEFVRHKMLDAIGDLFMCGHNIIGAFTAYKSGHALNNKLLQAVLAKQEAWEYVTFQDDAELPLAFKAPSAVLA
T2 sequence (Q02RJ6 198-498): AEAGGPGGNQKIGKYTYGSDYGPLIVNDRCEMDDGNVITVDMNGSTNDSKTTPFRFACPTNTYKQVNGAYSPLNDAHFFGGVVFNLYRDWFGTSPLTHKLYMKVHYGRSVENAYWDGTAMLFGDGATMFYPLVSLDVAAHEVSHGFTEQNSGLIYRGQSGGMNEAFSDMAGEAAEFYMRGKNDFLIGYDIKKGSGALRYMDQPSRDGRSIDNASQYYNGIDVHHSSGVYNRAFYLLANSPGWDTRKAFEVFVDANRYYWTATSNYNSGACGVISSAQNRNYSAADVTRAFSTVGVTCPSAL

| SMILES | Ki [1] [µM] | MIC [2] [µg/mL] | MIC [3] [µg/mL] | Inhibition zone E. coli BL21(DE3) [4] [mm] | Inhibition zone E. coli D22 [5] [mm] | LasB Inhibition at 20 μM ([6]; 20 μM) | inhibition at 20 µM ([6]; read-out: LasB Inhibition at 20 μM) [%] | Inter-Ligand NOESY peaks between the fragment and 9 [7] |
| --- | --- | --- | --- | --- | --- | --- | --- | --- |
| O=C(NO)[C@@H](COCc1ccccc1)OCc1ccc(C#Cc2ccc(CN3CCOCC3)cc2)cc1 [(R)-11a, (R)-3-(Benzyloxy)-N-hydroxy-2-[(4-{[4-(morpholinomethyl)phenyl]ethynyl}benzyl)oxy]propanamide] | 3.62 ± 0.64 | > 32 | 2 (≈ 4 µM) | ≤6 | 15.7 ± 1.2 |  |  |  |
| O=C(NO)[C@@H](CNCc1ccccc1)OCc1ccc(C#Cc2ccc(CN3CCOCC3)cc2)cc1 [(R)-12a, (R)-3-(Benzylamino)-N-hydroxy-2-[(4-{[4-(morpholinomethyl)phenyl]ethynyl}benzyl)oxy]propanamide] | 5.9 ± 2.02 | 32 (≈ 64 µM) | 4 (≈ 8.01 µM) | 10.7 ± 1.2 | 20.0 ± 1.8 |  |  |  |
| O=C(NC[C@@H](OCc1ccc(C#Cc2ccc(CN3CCOCC3)cc2)cc1)C(=O)NO)c1ccccc1 [(R)-13a, (R)-N-{3-(Hydroxyamino)-2-[(4-{[4-(morpholinomethyl)phenyl]ethynyl}benzyl)oxy]-3-oxopropyl}benzamide] | 2.56 ± 1.08 |  | 4 (≈ 7.79 µM) | 9.7 ± 0.6 | 18.0 ± 2.0 |  |  |  |
| O=C(NC[C@@H](OCc1ccc(C#Cc2ccc(CN3CCOCC3)cc2)cc1)C(=O)NO)c1ccc(-c2ccccc2)cc1 [(R)-13b] | > 2.54 | > 16 | > 16 | ≤6 | ≤6 |  |  |  |
| O=C(NC[C@@H](OCc1ccc(C#Cc2ccc(CN3CCOCC3)cc2)cc1)C(=O)NO)c1cccc(-c2ccccc2)c1 [(R)-13c] | > 2.54 | > 16 | > 16 | ≤6 | ≤6 |  |  |  |
| O=C(NC[C@@H](OCc1ccc(C#Cc2ccc(CN3CCOCC3)cc2)cc1)C(=O)NO)c1ccc(Oc2ccccc2)cc1 [(R)-13d] | > 2.54 | > 16 | > 16 | ≤6 | ≤6 |  |  |  |
| O=C(NC[C@@H](OCc1ccc(C#Cc2ccc(CN3CCOCC3)cc2)cc1)C(=O)NO)c1ccc2ccccc2n1 [(R)-13e] | > 2.54 | > 16 | 8 (≈ 14.2 µM) | ≤6 | 12.7 ± 1.6 |  |  |  |
| O=C(NC[C@@H](OCc1ccc(C#Cc2ccc(CN3CCOCC3)cc2)cc1)C(=O)NO)c1cnc2ccccc2c1 [(R)-13f] | > 2.54 | > 16 | > 16 | ≤6 | 10.3 ± 1.2 |  |  |  |
| O=C(NC[C@@H](OCc1ccc(C#Cc2ccc(CN3CCOCC3)cc2)cc1)C(=O)NO)c1cc2ccccc2[nH]1 [(R)-13g] | > 2.54 | > 16 | 16 (≈ 29 µM) | ≤6 | 9.0 ± 1.0 |  |  |  |
| O=C(NC[C@@H](OCc1ccc(C#Cc2ccc(CN3CCOCC3)cc2)cc1)C(=O)NO)c1ccc2[nH]ccc2c1 [(R)-13j] | 1.15 ± 0.317 | > 16 | 16 (≈ 29 µM) | ≤6 | 11.7 ± 1.2 |  |  |  |
| O=C(NC[C@@H](OCc1ccc(C#Cc2ccc(CN3CCOCC3)cc2)cc1)C(=O)NO)c1cc(-c2ccccc2)[nH]n1 [(R)-13m] | > 2.54 | > 16 | > 16 | ≤6 | 9.7 ± 1.3 |  |  |  |
| Cc1noc(C)c1C(=O)NC[C@@H](OCc1ccc(C#Cc2ccc(CN3CCOCC3)cc2)cc1)C(=O)NO [(R)-13n] | > 2.54 | > 16 | 8 (≈ 15 µM) | ≤6 | 16.3 ± 1.6 | no inhibitory activity | < 10 |  |
| O=C(NO)[C@@H](CN(Cc1ccccc1)Cc1ccccc1)OCc1ccc(C#Cc2ccc(CN3CCOCC3)cc2)cc1 [(R)-37, (R)-3-(Dibenzylamino)-N-hydroxy-2-[(4-{[4-(morpholinomethyl)phenyl]ethynyl}benzyl)oxy]propanamide] | > 2.54 | > 16 | > 16 | ≤6 | ≤6 |  |  |  |
| COc1ccc2[nH]ccc2c1 [F1] |  |  |  |  |  |  |  | yes |
| Oc1ccc(-n2ccnc2)cc1 [F2] |  |  |  |  |  |  |  | yes |
| c1ccc2[nH]ccc2c1 [F3] |  |  |  |  |  |  |  | yes |
| NC(=O)Cc1c[nH]c2ccc(Cl)cc12 [F4] |  |  |  |  |  |  |  | yes |
| c1ccc2c(c1)CCCN2 [F5] |  |  |  |  |  |  |  | yes |
| Nc1cnc2ccccc2c1 [F6] |  |  |  |  |  |  |  | yes |
| Nc1c2c(nc3ccccc13)CCCC2 [F7] |  |  |  |  |  |  |  | no |
| c1ccc(C2NCCn3cccc32)cc1 (stereo not drawn) [F8] |  |  |  |  |  |  |  | no |
| OCc1ccc(-n2cccn2)cc1 [F9] |  |  |  |  |  |  |  | no |
| c1ccc(Nc2ccccn2)nc1 [F10] |  |  |  |  |  |  |  | no |
| NCc1ccc(-c2ccccc2)cc1 [F11] |  |  |  |  |  |  |  | yes |
| c1ccc2[nH]ncc2c1 [F12] |  |  |  |  |  |  |  | no |
